Data published in paper PMC10239507, “Development of allosteric and selective CDK2 inhibitors for contraception with negative cooperativity to cyclin binding” (Nature Communications, 2023).

Legend:
Experiment in all cases: biochemical
[1] = target: T1, 371 kinases (kinase named in each endpoint) (Homo sapiens, UniProt P53779); settings: JNK3
T1 construct: purchased Reaction Biology

[2] = target: T2, 371 kinases (kinase named in each endpoint) (Homo sapiens, UniProt Q8TF76); settings: HASPIN
T2 construct: purchased Reaction Biology

[3] = target: T3, 371 kinases (kinase named in each endpoint) (Homo sapiens, UniProt Q9HCP0); settings: CK1G1
T3 construct: purchased Reaction Biology
T3 sequence (Q9HCP0 whole entry): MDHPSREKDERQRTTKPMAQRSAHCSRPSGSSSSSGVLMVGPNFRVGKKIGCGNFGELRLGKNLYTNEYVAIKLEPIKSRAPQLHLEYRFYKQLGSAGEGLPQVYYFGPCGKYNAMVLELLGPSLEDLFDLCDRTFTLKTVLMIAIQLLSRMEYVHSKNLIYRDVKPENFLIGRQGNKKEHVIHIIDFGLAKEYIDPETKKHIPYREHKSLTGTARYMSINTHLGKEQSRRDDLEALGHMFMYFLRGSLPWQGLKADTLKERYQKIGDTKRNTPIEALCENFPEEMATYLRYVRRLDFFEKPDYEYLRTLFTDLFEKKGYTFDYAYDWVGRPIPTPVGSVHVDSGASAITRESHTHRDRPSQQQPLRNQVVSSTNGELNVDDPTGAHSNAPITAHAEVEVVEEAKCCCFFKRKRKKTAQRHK

[4] = target: T4, 371 kinases (kinase named in each endpoint) (Homo sapiens, UniProt Q13873); settings: BMPR2
T4 construct: purchased Reaction Biology

[5] = target: T5, 371 kinases (kinase named in each endpoint) (Homo sapiens, UniProt Q9HBH9); settings: MNK2
T5 construct: purchased Reaction Biology

[6] = target: T6, 371 kinases (kinase named in each endpoint) (Homo sapiens, UniProt Q13237); settings: PKG2/PRKG2
T6 construct: purchased Reaction Biology

[7] = target: T7, 371 kinases (kinase named in each endpoint) (Homo sapiens, UniProt Q15349); settings: RSK3
T7 construct: purchased Reaction Biology
T7 sequence (Q15349 whole entry): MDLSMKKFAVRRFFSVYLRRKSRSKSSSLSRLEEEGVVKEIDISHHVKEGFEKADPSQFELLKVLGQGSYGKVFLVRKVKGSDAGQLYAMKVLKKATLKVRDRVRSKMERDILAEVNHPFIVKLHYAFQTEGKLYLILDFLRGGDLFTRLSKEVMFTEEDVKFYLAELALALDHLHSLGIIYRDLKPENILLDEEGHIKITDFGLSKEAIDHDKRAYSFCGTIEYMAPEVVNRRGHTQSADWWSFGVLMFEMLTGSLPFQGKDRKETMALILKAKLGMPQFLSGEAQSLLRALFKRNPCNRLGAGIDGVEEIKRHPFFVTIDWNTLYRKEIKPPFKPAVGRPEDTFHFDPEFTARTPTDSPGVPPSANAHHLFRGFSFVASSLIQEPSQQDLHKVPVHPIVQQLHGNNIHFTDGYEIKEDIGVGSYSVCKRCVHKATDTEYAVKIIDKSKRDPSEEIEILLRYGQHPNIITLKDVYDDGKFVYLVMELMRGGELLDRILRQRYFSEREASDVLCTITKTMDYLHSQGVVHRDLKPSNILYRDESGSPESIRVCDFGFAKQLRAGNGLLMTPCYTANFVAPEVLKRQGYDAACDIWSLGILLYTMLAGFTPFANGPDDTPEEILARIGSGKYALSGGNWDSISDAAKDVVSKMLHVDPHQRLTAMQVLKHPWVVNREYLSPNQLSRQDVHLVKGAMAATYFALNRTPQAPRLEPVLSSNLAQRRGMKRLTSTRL

[8] = target: T8, 371 kinases (kinase named in each endpoint) (Homo sapiens, UniProt Q9P289); settings: MST4
T8 construct: purchased Reaction Biology

[9] = target: T9, 371 kinases (kinase named in each endpoint) (Homo sapiens, UniProt P29597); settings: TYK2
T9 construct: purchased Reaction Biology

[10] = target: T10, 371 kinases (kinase named in each endpoint) (Homo sapiens, UniProt Q16512); settings: PKN1/PRK1
T10 construct: purchased Reaction Biology
T10 sequence (Q16512 whole entry): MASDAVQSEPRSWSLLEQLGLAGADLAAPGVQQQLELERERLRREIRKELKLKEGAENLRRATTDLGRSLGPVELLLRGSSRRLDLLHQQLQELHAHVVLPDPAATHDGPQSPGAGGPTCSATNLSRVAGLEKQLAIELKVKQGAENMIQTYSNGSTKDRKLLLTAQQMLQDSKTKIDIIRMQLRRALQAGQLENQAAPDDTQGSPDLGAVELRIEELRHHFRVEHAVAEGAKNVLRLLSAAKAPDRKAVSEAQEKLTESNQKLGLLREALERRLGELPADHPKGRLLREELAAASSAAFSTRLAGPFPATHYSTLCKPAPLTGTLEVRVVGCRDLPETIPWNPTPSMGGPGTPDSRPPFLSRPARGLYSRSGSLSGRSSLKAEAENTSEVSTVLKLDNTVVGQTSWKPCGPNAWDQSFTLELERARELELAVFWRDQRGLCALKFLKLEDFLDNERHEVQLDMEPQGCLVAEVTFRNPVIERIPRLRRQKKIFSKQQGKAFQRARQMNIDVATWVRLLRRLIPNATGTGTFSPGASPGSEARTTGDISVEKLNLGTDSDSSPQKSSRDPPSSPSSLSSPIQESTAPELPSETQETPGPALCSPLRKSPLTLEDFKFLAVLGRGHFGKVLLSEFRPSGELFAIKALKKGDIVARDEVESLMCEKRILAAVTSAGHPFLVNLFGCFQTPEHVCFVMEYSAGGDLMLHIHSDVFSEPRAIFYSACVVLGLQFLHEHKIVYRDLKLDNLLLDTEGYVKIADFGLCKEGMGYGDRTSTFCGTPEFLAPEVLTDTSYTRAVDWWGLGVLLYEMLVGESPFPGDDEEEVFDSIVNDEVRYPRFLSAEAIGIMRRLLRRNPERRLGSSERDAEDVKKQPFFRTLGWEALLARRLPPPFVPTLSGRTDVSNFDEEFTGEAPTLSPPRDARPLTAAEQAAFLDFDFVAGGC

[11] = target: T11, 371 kinases (kinase named in each endpoint) (Homo sapiens, UniProt Q8WXR4); settings: MYO3B
T11 construct: purchased Reaction Biology

[12] = target: T12, 371 kinases (kinase named in each endpoint) (Homo sapiens, UniProt O15264); settings: P38D/MAPK13
T12 construct: purchased Reaction Biology

[13] = target: T13, 371 kinases (kinase named in each endpoint) (Homo sapiens, UniProt P45985); settings: MKK4
T13 construct: purchased Reaction Biology

[14] = target: T14, 371 kinases (kinase named in each endpoint) (Homo sapiens, UniProt Q8WTQ7); settings: GRK7
T14 construct: purchased Reaction Biology

[15] = target: T15, 371 kinases (kinase named in each endpoint) (Homo sapiens, UniProt Q9Y4K4); settings: KHS/MAP4K5
T15 construct: purchased Reaction Biology
T15 sequence (Q9Y4K4 whole entry): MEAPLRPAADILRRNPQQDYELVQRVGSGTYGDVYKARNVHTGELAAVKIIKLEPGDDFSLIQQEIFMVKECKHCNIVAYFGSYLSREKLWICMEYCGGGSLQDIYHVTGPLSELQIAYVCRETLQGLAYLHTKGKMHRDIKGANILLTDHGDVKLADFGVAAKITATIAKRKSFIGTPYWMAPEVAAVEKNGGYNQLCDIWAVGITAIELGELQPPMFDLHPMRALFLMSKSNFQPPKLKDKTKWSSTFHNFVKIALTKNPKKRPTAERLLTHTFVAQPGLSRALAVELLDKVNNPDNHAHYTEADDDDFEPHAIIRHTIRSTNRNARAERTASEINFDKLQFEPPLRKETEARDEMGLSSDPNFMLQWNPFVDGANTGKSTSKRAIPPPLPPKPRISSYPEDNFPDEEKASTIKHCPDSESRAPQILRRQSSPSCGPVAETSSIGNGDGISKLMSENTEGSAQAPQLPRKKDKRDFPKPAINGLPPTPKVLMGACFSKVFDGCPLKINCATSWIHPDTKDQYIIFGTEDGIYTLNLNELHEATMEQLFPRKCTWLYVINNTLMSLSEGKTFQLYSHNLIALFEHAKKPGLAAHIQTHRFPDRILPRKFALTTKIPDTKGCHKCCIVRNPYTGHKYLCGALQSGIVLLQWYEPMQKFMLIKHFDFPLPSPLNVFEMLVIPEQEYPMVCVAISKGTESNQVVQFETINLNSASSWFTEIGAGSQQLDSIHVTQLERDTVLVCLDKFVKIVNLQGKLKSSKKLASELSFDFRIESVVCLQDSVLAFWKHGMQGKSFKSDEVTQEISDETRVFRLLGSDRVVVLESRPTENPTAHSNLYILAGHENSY

[16] = target: T16, 371 kinases (kinase named in each endpoint) (Homo sapiens, UniProt Q86YV6); settings: MYLK4
T16 construct: purchased Reaction Biology

[17] = target: T17, 371 kinases (kinase named in each endpoint) (Homo sapiens, UniProt P53350); settings: PLK1
T17 construct: purchased Reaction Biology

[18] = target: T18, 371 kinases (kinase named in each endpoint) (Homo sapiens, UniProt P17948); settings: FLT1/VEGFR1
T18 construct: purchased Reaction Biology

[19] = target: T19, 371 kinases (kinase named in each endpoint) (Homo sapiens, UniProt Q15569); settings: TESK1
T19 construct: purchased Reaction Biology

[20] = target: T20, 371 kinases (kinase named in each endpoint) (Homo sapiens, UniProt Q32MK0); settings: MYLK3
T20 construct: purchased Reaction Biology

[21] = target: T21, 371 kinases (kinase named in each endpoint) (Homo sapiens, UniProt Q9UIK4); settings: DAPK2
T21 construct: purchased Reaction Biology

[22] = target: T22, 371 kinases (kinase named in each endpoint) (Homo sapiens, UniProt Q9P286); settings: PAK5
T22 construct: purchased Reaction Biology

[23] = target: T23, 371 kinases (kinase named in each endpoint) (Homo sapiens, UniProt P42680); settings: TEC
T23 construct: purchased Reaction Biology

[24] = target: T24, 371 kinases (kinase named in each endpoint) (Homo sapiens, UniProt P42684); settings: ABL2/ARG
T24 construct: purchased Reaction Biology
T24 sequence (P42684 whole entry): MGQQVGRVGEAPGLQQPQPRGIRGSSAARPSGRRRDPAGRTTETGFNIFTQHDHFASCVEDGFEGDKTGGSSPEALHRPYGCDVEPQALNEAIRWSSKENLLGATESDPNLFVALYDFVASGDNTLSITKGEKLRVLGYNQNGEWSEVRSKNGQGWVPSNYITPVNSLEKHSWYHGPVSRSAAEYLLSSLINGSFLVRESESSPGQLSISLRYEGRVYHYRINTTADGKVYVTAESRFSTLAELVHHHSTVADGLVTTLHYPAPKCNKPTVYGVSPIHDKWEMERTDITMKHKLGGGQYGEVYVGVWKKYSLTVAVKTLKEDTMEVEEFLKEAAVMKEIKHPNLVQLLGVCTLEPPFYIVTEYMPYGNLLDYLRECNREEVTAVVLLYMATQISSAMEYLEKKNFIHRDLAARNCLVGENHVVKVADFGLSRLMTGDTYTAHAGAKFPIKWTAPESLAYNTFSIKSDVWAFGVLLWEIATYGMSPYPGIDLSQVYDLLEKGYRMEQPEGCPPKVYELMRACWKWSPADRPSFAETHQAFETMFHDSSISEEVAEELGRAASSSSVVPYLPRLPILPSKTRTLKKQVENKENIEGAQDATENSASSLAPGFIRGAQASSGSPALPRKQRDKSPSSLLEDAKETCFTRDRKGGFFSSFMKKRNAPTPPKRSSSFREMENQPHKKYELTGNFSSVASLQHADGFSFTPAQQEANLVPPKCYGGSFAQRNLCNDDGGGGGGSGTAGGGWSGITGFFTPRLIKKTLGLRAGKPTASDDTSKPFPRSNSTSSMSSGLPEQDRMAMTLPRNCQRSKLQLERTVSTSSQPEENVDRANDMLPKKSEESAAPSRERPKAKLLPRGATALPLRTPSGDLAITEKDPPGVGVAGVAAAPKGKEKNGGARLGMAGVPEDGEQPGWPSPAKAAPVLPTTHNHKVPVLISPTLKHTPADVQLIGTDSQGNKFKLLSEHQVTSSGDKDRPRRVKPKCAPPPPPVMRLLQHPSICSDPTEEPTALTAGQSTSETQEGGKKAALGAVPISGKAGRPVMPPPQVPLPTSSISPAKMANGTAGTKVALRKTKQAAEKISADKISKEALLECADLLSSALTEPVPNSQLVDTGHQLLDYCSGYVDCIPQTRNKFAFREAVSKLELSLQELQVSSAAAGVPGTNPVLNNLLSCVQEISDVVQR

[25] = target: T25, 371 kinases (kinase named in each endpoint) (Homo sapiens, UniProt Q9Y243); settings: AKT3
T25 construct: purchased Reaction Biology

[26] = target: T26, 371 kinases (kinase named in each endpoint) (Homo sapiens, UniProt Q13164); settings: ERK5/MAPK7
T26 construct: purchased Reaction Biology

[27] = target: T27, 371 kinases (kinase named in each endpoint) (Homo sapiens, UniProt P54760); settings: EPHB4
T27 construct: purchased Reaction Biology

[28] = target: T28, 371 kinases (kinase named in each endpoint) (Homo sapiens, UniProt Q6P5Z2); settings: PKN3/PRK3
T28 construct: purchased Reaction Biology
T28 sequence (Q6P5Z2 whole entry): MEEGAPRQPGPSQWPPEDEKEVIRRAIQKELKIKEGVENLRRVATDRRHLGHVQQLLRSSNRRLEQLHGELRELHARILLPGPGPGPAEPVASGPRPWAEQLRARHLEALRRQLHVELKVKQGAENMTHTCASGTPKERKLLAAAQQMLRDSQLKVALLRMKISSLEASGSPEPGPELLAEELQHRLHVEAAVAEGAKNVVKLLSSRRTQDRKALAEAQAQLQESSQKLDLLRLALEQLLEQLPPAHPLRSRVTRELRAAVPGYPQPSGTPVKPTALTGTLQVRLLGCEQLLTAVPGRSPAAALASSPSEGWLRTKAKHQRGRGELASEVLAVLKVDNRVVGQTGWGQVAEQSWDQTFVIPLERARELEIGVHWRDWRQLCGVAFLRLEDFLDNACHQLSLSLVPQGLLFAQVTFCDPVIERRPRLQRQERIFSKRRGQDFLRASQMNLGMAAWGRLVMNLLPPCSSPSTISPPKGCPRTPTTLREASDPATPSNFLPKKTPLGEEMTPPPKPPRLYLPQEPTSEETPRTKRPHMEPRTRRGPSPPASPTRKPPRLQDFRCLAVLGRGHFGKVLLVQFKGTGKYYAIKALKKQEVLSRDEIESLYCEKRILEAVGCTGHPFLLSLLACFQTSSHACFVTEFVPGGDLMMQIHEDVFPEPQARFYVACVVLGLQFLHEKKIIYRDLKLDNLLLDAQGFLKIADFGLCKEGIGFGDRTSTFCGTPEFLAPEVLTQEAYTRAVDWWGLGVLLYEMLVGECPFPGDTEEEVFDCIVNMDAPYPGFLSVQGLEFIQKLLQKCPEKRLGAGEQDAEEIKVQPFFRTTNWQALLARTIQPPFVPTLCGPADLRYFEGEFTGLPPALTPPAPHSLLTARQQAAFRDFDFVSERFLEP

[29] = target: T29, 371 kinases (kinase named in each endpoint) (Homo sapiens, UniProt Q9Y2H1); settings: STK38L/NDR2
T29 construct: purchased Reaction Biology

[30] = target: T30, 371 kinases (kinase named in each endpoint) (Homo sapiens, UniProt Q7KZI7); settings: MARK2/PAR-1BA
T30 construct: purchased Reaction Biology

[31] = target: T31, 371 kinases (kinase named in each endpoint) (Homo sapiens, UniProt P27361); settings: ERK1
T31 construct: purchased Reaction Biology

[32] = target: T32, 371 kinases (kinase named in each endpoint) (Homo sapiens, UniProt O95835); settings: LATS1
T32 construct: purchased Reaction Biology

[33] = target: T33, 371 kinases (kinase named in each endpoint) (Homo sapiens, UniProt P23458); settings: JAK1
T33 construct: purchased Reaction Biology

[34] = target: T34, 371 kinases (kinase named in each endpoint) (Homo sapiens, UniProt Q05397); settings: FAK/PTK2
T34 construct: purchased Reaction Biology

[35] = target: T35, 371 kinases (kinase named in each endpoint) (Homo sapiens, UniProt Q9UM73); settings: ALK
T35 construct: purchased Reaction Biology

[36] = target: T36, 371 kinases (kinase named in each endpoint) (Homo sapiens, UniProt Q9NQU5); settings: PAK6
T36 construct: purchased Reaction Biology

[37] = target: T37, 371 kinases (kinase named in each endpoint) (Homo sapiens, UniProt Q14289); settings: PYK2
T37 construct: purchased Reaction Biology

Which activity at 10 µM [1] does the source give for `O=C(O)c1cc(C(F)(F)F)ccc1NCCc1c[nH]c2cc(Br)ccc12` [Compound 5, 2-((2-(6-Bromo-1H-indol-3-yl)ethyl)amino)−5-(trifluoromethyl)benzoic Acid] here?
Its activity at 10 µM is 90.9 ± 0.3%.

What about the activity at 10 µM [2] of the same compound?
Its activity at 10 µM is 59.9 ± 1.3%.

What about the activity at 10 µM [3] of the same compound?
The activity at 10 µM was 96.2 ± 0.3%.

And the activity at 10 µM [4]?
The activity at 10 µM was 88 ± 5.4%.

What about the activity at 10 µM [5] of the same compound?
Its activity at 10 µM is 93.3 ± 1.9%.

What about the activity at 10 µM [6] of the same compound?
Its activity at 10 µM is 117 ± 7.9%.

And the activity at 10 µM [7]?
Its activity at 10 µM is 87 ± 1.4%.

What about the activity at 10 µM [8] of the same compound?
Its activity at 10 µM is 56 ± 0.2%.

And the activity at 10 µM [9]?
The activity at 10 µM was 78.1 ± 0.7%.

What about the activity at 10 µM [10] of the same compound?
The activity at 10 µM was 123 ± 1.9%.

And the activity at 10 µM [11]?
Its activity at 10 µM is 97.8 ± 1.5%.

What about the activity at 10 µM [12] of the same compound?
Its activity at 10 µM is 80.9 ± 2.2%.

And the activity at 10 µM [13]?
The activity at 10 µM was 115 ± 4.5%.

And the activity at 10 µM [14]?
Its activity at 10 µM is 101.5 ± 0.4%.

What about the activity at 10 µM [15] of the same compound?
Its activity at 10 µM is 72 ± 2.8%.

And the activity at 10 µM [16]?
Its activity at 10 µM is 78.7 ± 0.2%.

And the activity at 10 µM [17]?
Its activity at 10 µM is 92.7 ± 1.5%.

What about the activity at 10 µM [18] of the same compound?
The activity at 10 µM was 85 ± 0.7%.

And the activity at 10 µM [19]?
The activity at 10 µM was 82.4 ± 1.3%.

And the activity at 10 µM [20]?
The activity at 10 µM was 90.9 ± 3.2%.

What about the activity at 10 µM [21] of the same compound?
Its activity at 10 µM is 78.8 ± 0.4%.

What about the activity at 10 µM [22] of the same compound?
Its activity at 10 µM is 101.2 ± 0.3%.

And the activity at 10 µM [23]?
The activity at 10 µM was 101 ± 1.6%.

And the activity at 10 µM [24]?
Its activity at 10 µM is 94.7 ± 2.8%.

And the activity at 10 µM [25]?
The activity at 10 µM was 90.2 ± 0.5%.

What about the activity at 10 µM [26] of the same compound?
Its activity at 10 µM is 121 ± 3%.

What about the activity at 10 µM [27] of the same compound?
Its activity at 10 µM is 91.7 ± 0.5%.

What about the activity at 10 µM [28] of the same compound?
Its activity at 10 µM is 98.3 ± 1.2%.

And the activity at 10 µM [29]?
The activity at 10 µM was 94 ± 0.9%.

What about the activity at 10 µM [30] of the same compound?
Its activity at 10 µM is 87.5 ± 0.7%.

What about the activity at 10 µM [31] of the same compound?
The activity at 10 µM was 99.7 ± 0.9%.

What about the activity at 10 µM [32] of the same compound?
Its activity at 10 µM is 93 ± 3.5%.

What about the activity at 10 µM [33] of the same compound?
The activity at 10 µM was 67.7 ± 0.8%.

And the activity at 10 µM [34]?
Its activity at 10 µM is 88.2 ± 1.5%.

And the activity at 10 µM [35]?
Its activity at 10 µM is 93.8 ± 0.7%.

What about the activity at 10 µM [36] of the same compound?
The activity at 10 µM was 244 ± 9%.

And the activity at 10 µM [37]?
The activity at 10 µM was 75.6 ± 1.9%.
